Columns and labels:
[1] = system: human plasma; test: Prothrombin time clotting assay; format: biochemical
Procedure: Human blood from healthy volunteers, both men and women, was collected in 50 mL conical plastic tubes containing 5 mL of 0.13 mol/L of buffered tri-sodium citrate. The blood was immediately chilled on ice and centrifuged at 2000×g for 20 minutes.
100 μL of human plasma was pre-warmed to 37° C. for 180 seconds before coagulation was initiated by the addition of 200 μL pre-warmed assay reagent (Thromboplastin-S, ISI 1.1, Biopool Umea, Sweden). The prothrombin time (PT) was determined on a mechanical coagulometer, coupled to a CR-A calculator, CR 10 printer and a PR60 heat block (KC 10A Amelung, Germany). Each clotting test was performed in duplicate.
In order to determine the relative potency of each inhibitor and a 50:50 mixture thereof, the concentration required to double the prothrombin time (IC50) was determined as follows: The ratio of prothrombin time in control plasma (PT0) to the prothrombin time in the presence of different inhibitor concentrations (PTinhibitor) were plotted against the inhibitor concentration (log transformed) and fitted to sigmoidal dose-response curves from which IC50 values were calculated according to the equation:
where y=(PTO)/(PT) with a range from 1 to 0; a=maximal range i.e. 1, when PTmela is equal to PT0; s=the slope of the dose-response curve, x=log concentration of inhibitor, IC50=the concentration of melagatran that doubles the prothrombin time. The calculations were processed on a PC using the software program GraFit® Erithacus Version 3.0 (Robin Leatherbarrow, Imperial Collage of Science, Technology & Medicine, London).

Structure (SMILES) | IC50 ([1]; from sigmoidal dose-response curves of PT0/PTinhibitor, human plasma, total concentration for the mixture, read-out: IC50 (concentration required to double the prothrombin time)) | Prothrombin time ([1]; plasma conc. 0.23 μmol/L) | Prothrombin time ([1]; plasma conc. 0.47 μmol/L) | Prothrombin time ([1]; plasma conc. 0.70 μmol/L) | Prothrombin time ([1]; plasma conc. 0.93 μmol/L) | Prothrombin time ([1]; plasma conc. 1.17 μmol/L) | Prothrombin time ([1]; plasma conc. 1.40 μmol/L) | Prothrombin time ([1]; plasma conc. 1.63 μmol/L) | Prothrombin time ([1]; plasma conc. 1.86 μmol/L) | Prothrombin time ([1]; plasma conc. 2.10 μmol/L) | PT ([1]; single inhibitor at 2.33 μmol/L in human platelet poor plasma) | melting point
N=C(N)c1ccc(CNC(=O)[C@@H]2CCN2C(=O)[C@H](NCC(=O)O)C2CCCCC2)cc1 [melagatran, HOOC—CH2—(R)Cgl-Aze-Pab-H] | 740 nM | 18.1 s | 21.8 s | 25.4 s | 32.6 s | 43.2 s | 53.8 s | 65.3 s | 76.3 s | 87.2 s | 95.2 s | 
O=C(c1ccc(-c2cc[n+]([O-])cc2)cc1)N1CCN(S(=O)(=O)c2cc3cc(Cl)ccc3[nH]2)CC1 [Example 1, 4-{4-[4(5-Chloroindol-2-ylsulfonyl)piperazine-1-carbonyl]phenyl}-pyridine-1-oxide] |  |  |  |  |  |  |  |  |  |  |  | 265 to 267 °C

From patent US20030158120A1, “Combination product comprising melagatran and a factor xa inhibitor” (AstrZeneca AB, priority 2000, published 2003)
